The target in experiment [1] is T1, CK1α (Homo sapiens, UniProt P48729).
T1 construct: purchased Invitrogen
Nature of the experiment: In vitro kinase assay (33P, peptide substrate). In kind it is biochemical.

The target in experiment [2] is T2, CK1δ (Homo sapiens, UniProt P48730).
T2 construct: purchased Upstate
Kind of experiment: In vitro kinase assay (33P, peptide substrate). In kind it is biochemical.

Experiment [3] concerns the target T3, CK1γ1 (Homo sapiens, UniProt Q9HCP0).
T3 construct: purchased Invitrogen
Kind of experiment: In vitro kinase assay (33P, peptide substrate). In kind it is biochemical.

Experiment [4] has as its target T4, AMPK-alpha1 (Homo sapiens, UniProt Q13131).
T4 construct: purchased Ambit Biosciences
Nature of the experiment: KinomeScan kinase profiling. The settings on record: 10 μM. In kind it is binding.

For experiment [5], the target named is T5, BRAF (Homo sapiens, UniProt P15056).
T5 construct: purchased Ambit Biosciences
Kind of experiment: KinomeScan kinase profiling. The note with it: 10 μM. In kind it is binding.

For experiment [6], the target named is T6, CDK5 (Homo sapiens, UniProt Q00535).
T6 construct: purchased Ambit Biosciences (San Diego, Calif.)
Nature of the experiment: KinomeScan kinase profiling. In kind it is binding. The note with it: 10 μM.

For experiment [7], the target named is T7, CLK2 (Homo sapiens, UniProt P49760).
T7 construct: purchased Ambit Biosciences (San Diego, Calif.)
Nature of the experiment: KinomeScan kinase profiling. The experiment is classed as binding. The settings on record: 10 μM.

Experiment [8] addresses T8, DAPK2 (Homo sapiens, UniProt Q9UIK4).
T8 construct: purchased Ambit Biosciences (San Diego, Calif.)
Kind of experiment: KinomeScan kinase profiling. In kind it is binding. The settings on record: 10 μM.

Experiment [9] has as its target T9, EPHA3 (Homo sapiens, UniProt P29320).
T9 construct: purchased Ambit Biosciences (San Diego, Calif.)
Kind of experiment: KinomeScan kinase profiling. The experiment is classed as binding. The settings on record: 10 μM.

Experiment [10] has as its target T10, EPHB4 (Homo sapiens, UniProt P54760).
T10 construct: purchased Ambit Biosciences (San Diego, Calif.)
Nature of the experiment: KinomeScan kinase profiling. In kind it is binding. The note with it: 10 μM.

For experiment [11], the target named is T11, FGFR2 (Homo sapiens, UniProt P21802).
T11 construct: purchased Ambit Biosciences
Nature of the experiment: KinomeScan kinase profiling. The experiment is classed as binding. The settings on record: 10 μM.

Experiment [12] has as its target T12, FGFR3 (Homo sapiens, UniProt P22607).
T12 construct: purchased Ambit Biosciences
Nature of the experiment: KinomeScan kinase profiling. The experiment is classed as binding. The note with it: 10 μM.

In experiment [13] the target is T13, JAK2(Kin.Dom2) (Homo sapiens, UniProt O60674).
T13 construct: JAK2(Kin.Dom2); purchased Ambit Biosciences
Nature of the experiment: KinomeScan kinase profiling. The experiment is classed as binding. The settings on record: 10 μM.

The target of experiment [14] is T14, JNK2 (Homo sapiens, UniProt P45984).
T14 construct: purchased Ambit Biosciences
Nature of the experiment: KinomeScan kinase profiling. In kind it is binding. The note with it: 10 μM.

Experiment [15] deals with T15, KIT (Homo sapiens, UniProt P10721).
T15 construct: purchased Ambit Biosciences
Nature of the experiment: KinomeScan kinase profiling. The experiment is classed as binding. The note with it: 10 μM.

Experiment [16] concerns the target LIMK1 (Homo sapiens, UniProt P53667). Kind of experiment: KinomeScan kinase profiling. The experiment is classed as binding. The note with it: 10 μM.
Experiment [17] has as its target PHKG1 (Homo sapiens, UniProt Q16816). Nature of the experiment: KinomeScan kinase profiling. In kind it is binding. The settings on record: 10 μM.
Experiment [18] addresses T16, PKAC-alpha (Homo sapiens, UniProt P17612).
T16 construct: purchased Ambit Biosciences
Nature of the experiment: KinomeScan kinase profiling. The settings on record: 10 μM. In kind it is binding.

In experiment [19] the target is T17, PTK6 (Homo sapiens, UniProt Q13882).
T17 construct: purchased Ambit Biosciences
Kind of experiment: KinomeScan kinase profiling. The note with it: 10 μM. In kind it is binding.

Experiment [20] deals with T18, RPS6KA2 (Homo sapiens, UniProt Q15349).
T18 construct: purchased Ambit Biosciences
Kind of experiment: KinomeScan kinase profiling. The experiment is classed as binding. The note with it: 10 μM.

For experiment [21], the target named is T19, STK3 (Homo sapiens, UniProt Q13188).
T19 construct: purchased Ambit Biosciences
Nature of the experiment: KinomeScan kinase profiling. In kind it is binding. The note with it: 10 μM.

Experiment [22] addresses T20, STK4 (Homo sapiens, UniProt Q13043).
T20 construct: purchased Ambit Biosciences
Kind of experiment: KinomeScan kinase profiling. The settings on record: 10 μM. The experiment is classed as binding.

pIC50: −log10 of the molar value. Like-named read-outs stand apart in the source and are kept apart here.

The source of these data is patent US20090099237A1, “Methods of treating inflammatory diseases” (Roche Palo Alto LLC, priority 2007, published 2009).

T13 sequence (O60674 849-1124 limits assumed): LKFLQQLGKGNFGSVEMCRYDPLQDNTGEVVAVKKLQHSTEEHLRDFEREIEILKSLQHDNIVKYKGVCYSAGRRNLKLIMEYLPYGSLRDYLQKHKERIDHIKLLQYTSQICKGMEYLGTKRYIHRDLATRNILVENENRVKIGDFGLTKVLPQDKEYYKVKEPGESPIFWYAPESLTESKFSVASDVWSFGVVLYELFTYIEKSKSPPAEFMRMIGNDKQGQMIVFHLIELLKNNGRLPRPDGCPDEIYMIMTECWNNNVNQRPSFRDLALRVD
T20 sequence (Q13043 whole entry): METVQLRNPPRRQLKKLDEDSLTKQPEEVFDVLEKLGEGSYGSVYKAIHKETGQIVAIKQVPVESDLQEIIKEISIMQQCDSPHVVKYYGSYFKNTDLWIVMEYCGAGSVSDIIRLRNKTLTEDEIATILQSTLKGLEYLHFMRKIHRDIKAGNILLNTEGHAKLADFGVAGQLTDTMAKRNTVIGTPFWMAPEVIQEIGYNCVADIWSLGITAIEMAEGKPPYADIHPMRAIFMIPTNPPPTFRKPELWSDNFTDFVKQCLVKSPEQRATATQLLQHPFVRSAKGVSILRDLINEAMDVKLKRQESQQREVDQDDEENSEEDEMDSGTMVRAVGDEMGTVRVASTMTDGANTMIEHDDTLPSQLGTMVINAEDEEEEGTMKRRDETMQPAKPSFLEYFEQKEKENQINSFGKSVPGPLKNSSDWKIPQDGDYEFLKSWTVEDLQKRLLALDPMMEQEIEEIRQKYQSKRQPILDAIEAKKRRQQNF
T7 sequence (P49760 whole entry): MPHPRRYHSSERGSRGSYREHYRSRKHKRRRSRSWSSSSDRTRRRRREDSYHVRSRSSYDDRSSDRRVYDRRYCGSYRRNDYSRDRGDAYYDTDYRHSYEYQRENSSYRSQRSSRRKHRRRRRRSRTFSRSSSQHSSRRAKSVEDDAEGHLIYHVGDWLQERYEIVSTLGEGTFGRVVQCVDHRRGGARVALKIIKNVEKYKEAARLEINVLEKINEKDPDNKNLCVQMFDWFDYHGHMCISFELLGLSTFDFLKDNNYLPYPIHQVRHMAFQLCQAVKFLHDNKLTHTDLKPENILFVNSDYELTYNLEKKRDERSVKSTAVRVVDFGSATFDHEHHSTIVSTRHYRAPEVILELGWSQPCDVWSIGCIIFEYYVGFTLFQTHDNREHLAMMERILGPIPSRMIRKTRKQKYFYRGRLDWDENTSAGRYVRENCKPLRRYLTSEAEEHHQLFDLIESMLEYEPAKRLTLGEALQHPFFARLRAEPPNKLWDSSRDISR
T8 sequence (Q9UIK4 whole entry): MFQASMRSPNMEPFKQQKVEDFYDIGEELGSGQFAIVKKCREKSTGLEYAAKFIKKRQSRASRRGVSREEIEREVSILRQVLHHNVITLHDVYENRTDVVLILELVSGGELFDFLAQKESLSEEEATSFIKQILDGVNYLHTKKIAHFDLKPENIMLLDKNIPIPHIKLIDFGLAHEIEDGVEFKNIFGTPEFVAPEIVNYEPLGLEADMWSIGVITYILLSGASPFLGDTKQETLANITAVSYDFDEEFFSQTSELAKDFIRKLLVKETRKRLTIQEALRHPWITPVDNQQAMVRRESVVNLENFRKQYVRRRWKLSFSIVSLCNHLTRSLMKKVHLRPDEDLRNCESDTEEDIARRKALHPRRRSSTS
PHKG1, sequence (Q16816 whole entry): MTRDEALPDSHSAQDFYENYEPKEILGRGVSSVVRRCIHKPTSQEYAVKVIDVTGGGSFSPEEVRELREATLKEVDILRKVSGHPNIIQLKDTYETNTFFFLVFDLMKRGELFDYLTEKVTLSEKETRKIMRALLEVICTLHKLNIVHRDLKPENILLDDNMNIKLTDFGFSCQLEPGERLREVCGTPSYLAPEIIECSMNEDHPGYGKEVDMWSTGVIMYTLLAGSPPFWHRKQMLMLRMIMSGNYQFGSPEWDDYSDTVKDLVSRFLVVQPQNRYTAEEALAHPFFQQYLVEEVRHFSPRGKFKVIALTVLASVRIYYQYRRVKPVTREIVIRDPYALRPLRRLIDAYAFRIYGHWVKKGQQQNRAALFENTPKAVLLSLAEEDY
T10 sequence (P54760 16-987): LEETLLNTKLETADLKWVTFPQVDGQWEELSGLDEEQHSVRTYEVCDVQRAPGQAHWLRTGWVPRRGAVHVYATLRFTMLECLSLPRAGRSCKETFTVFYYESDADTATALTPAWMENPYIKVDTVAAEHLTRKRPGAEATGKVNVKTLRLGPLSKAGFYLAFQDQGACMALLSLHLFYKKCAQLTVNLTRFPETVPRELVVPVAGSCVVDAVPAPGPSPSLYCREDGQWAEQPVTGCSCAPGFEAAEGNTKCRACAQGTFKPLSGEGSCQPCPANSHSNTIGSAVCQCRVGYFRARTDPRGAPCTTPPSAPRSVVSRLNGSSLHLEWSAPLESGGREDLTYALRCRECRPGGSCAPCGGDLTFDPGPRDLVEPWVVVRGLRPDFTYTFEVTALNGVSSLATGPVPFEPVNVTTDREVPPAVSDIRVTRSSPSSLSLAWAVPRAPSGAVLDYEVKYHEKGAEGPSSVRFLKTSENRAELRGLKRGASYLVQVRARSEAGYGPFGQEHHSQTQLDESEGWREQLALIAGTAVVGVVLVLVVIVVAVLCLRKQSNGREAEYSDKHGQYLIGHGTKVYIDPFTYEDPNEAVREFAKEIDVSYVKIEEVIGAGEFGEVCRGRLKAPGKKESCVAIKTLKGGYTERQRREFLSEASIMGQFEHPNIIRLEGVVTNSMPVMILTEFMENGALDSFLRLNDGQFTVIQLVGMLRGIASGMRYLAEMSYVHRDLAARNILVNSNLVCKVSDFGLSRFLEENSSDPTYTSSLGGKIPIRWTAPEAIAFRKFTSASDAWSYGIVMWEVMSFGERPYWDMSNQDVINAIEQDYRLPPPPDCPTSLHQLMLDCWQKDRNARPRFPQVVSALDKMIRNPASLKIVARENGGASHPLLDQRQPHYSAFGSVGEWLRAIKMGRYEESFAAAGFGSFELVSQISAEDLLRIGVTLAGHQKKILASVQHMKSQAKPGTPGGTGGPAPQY
T2 sequence (P48730 whole entry): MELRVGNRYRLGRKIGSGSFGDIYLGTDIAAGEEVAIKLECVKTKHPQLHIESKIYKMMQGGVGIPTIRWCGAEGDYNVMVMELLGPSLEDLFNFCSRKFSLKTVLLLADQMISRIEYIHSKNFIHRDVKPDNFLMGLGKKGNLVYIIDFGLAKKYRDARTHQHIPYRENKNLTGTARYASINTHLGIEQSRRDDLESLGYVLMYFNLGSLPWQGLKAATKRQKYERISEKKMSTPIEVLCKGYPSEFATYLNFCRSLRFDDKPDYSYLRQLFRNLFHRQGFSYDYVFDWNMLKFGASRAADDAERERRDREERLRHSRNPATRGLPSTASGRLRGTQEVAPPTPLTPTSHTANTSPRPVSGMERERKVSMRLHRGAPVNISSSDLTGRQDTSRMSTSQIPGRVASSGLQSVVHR
T14 sequence (P45984 whole entry): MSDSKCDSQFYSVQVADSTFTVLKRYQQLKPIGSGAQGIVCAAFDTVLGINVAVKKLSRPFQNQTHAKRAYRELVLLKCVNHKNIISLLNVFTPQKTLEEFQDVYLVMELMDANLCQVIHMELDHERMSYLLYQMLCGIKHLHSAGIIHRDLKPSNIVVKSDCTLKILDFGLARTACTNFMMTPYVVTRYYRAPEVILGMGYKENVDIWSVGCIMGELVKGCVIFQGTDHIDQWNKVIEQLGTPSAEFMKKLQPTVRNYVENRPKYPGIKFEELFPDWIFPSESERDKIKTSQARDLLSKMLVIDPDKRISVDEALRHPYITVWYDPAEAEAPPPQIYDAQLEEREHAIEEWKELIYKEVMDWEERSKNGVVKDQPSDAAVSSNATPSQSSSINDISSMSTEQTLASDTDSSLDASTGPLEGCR
T1 sequence (P48729 whole entry): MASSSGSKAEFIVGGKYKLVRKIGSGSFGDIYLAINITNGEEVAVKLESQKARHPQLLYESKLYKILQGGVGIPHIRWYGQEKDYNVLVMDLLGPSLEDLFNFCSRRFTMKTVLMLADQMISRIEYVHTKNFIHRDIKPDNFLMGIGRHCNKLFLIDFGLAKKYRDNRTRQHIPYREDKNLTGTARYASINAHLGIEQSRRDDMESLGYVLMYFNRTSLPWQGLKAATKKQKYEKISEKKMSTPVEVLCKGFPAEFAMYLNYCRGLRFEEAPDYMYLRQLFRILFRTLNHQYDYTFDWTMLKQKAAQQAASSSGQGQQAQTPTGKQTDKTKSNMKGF
T12 sequence (P22607 23-806): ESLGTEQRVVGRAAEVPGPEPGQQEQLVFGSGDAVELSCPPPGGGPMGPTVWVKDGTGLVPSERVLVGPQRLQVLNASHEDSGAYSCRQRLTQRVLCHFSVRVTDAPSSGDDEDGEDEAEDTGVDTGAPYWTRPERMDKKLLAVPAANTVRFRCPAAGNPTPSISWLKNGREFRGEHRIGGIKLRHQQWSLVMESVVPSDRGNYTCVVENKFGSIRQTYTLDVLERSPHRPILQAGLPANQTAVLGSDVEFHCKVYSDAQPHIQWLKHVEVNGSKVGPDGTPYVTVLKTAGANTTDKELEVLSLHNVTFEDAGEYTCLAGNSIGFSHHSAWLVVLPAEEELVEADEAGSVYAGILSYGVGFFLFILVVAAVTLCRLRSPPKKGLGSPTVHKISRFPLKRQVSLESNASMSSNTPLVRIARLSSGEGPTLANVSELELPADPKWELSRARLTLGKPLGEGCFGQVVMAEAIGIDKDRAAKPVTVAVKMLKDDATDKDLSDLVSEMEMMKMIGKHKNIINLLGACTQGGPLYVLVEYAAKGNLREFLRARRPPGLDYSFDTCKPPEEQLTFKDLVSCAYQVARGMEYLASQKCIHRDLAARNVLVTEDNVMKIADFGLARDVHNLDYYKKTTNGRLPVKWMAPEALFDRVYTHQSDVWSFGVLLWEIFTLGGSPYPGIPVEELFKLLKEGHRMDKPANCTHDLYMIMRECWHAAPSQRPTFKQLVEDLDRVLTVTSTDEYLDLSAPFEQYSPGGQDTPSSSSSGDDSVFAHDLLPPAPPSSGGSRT

In the case of `COc1cc(OC)c(C=C2C(O)=Nc3ccccc32)c(OC)c1` [IC261, 3-[(2,4,6-trimethoxyphenyl)methylidenyl]-indolin-2-one], the pIC50 in experiment [1] was 5.21; in experiment [2], 5.82; in experiment [3], less than 4.00. In addition, the “% Binding” value in [4], in [5], in experiment [6], in experiment [7], in experiment [8] and in experiment [9] was less than 50% each time. For the same compound, the “% Binding” value in [10], in [11], in experiment [12], in experiment [13], in experiment [14] and in experiment [15] was less than 50% in each case. Besides, the “% Binding” value in experiment [16], in experiment [17], in [18], in experiment [19], in [20] and in [21] was less than 50% throughout. Further, in experiment [22], the “% Binding” value is reported as less than 50%.

As to `NC(=O)c1cc(-c2ccncc2)c[nH]1` [Compound A, 4-Pyridin-4-yl-1H-pyrrole-2-carboxylic acid amide], the pIC50 in [1] (CK1α, 50 μM ATP, read-out: IC50) is 5.92; in [2] (CK1δ, 50 μM ATP, read-out: IC50) it was 5.12; in [3] (CK1γ1, 50 μM ATP, read-out: IC50), less than 4.00. Further, the “% Binding” value in experiment [4], in [5], in experiment [6], in [7], in experiment [8] and in experiment [9] was less than 50% each time. Moreover, the “% Binding” value in [10], in experiment [11], in experiment [12], in experiment [13], in experiment [14] and in [15] was less than 50% each time. The “% Binding” value in experiment [16], in experiment [17], in experiment [18], in [19], in [20] and in experiment [21] was less than 50% in each case. Further, in experiment [22], the “% Binding” value is reported as less than 50%.

Broadly, the pIC50 is −log10 of the IC50, conventionally taken in molar units.
